The source of these data is PMC6927228 (Journal of Experimental Pharmacology, 2019).

This experiment addresses Trypanosoma evansi protein-tyrosine phosphatase (PTPase). The settings on record: competitive; substrate pNPP; 25 mM HEPES pH 7.3, 10% glycerol, no EDTA; 37 °C.

For orientation: Ki means the dissociation constant of the complex between target and ligand, obtained from inhibition or displacement. Low readings indicate higher affinity, high ones lower affinity. In turn, `[O]=[V]([OH])([OH])[OH]` [sodium orthovanadate] returned a Ki of 200 µg/mL.
